Assay results as given in PubChem BioAssay AID2060492 (Molecular Pharmacology Branch, DTP, NCI, 2025).

Tested on: 695427-040-R-J1-PDC complex spheroids, viability percent T/C
Assay: Anticancer human tumor 695427-040-R-J1-PDC patient-derived colon adenocarcinoma cell line growth inhibition [GQUAD]
Conditions: for IC50: curve of first compound; for viability, T/C: stronger effect = lower value
In short: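 Viability of tumor cells grown as complex spheroids with endothelial and stromal cells, exposed to drug combinations. Top concentration at or near clinical Cmax (else 10 microM), diluted in half-log increments.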

[1] = second compound 0.0316 µM, first compound 0.0316 µM
[2] = second compound 0.0316 µM, first compound 0.1 µM
[3] = second compound 0.0316 µM, first compound 0.316 µM
[4] = second compound 0.0316 µM, first compound 1 µM
[5] = second compound 0.0316 µM, first compound 3.16 µM
[6] = second compound 0.0316 µM, first compound 10 µM
[7] = second compound 0.1 µM, first compound 0.0316 µM
[8] = second compound 0.1 µM, first compound 0.1 µM
[9] = second compound 0.1 µM, first compound 0.316 µM
[10] = second compound 0.1 µM, first compound 1 µM
[11] = second compound 0.1 µM, first compound 3.16 µM
[12] = second compound 0.1 µM, first compound 10 µM
[13] = second compound 0.316 µM, first compound 0.0316 µM
[14] = second compound 0.316 µM, first compound 0.1 µM
[15] = second compound 0.316 µM, first compound 0.316 µM
[16] = second compound 0.316 µM, first compound 1 µM
[17] = second compound 0.316 µM, first compound 3.16 µM
[18] = second compound 0.316 µM, first compound 10 µM
[19] = second compound 1 µM, first compound 0.0316 µM
[20] = second compound 1 µM, first compound 0.1 µM
[21] = second compound 1 µM, first compound 0.316 µM
[22] = second compound 1 µM, first compound 1 µM
[23] = second compound 1 µM, first compound 3.16 µM
[24] = second compound 1 µM, first compound 10 µM
[25] = second compound 3.16 µM, first compound 0.0316 µM
[26] = second compound 3.16 µM, first compound 0.1 µM
[27] = second compound 3.16 µM, first compound 0.316 µM
[28] = second compound 3.16 µM, first compound 1 µM
[29] = second compound 3.16 µM, first compound 3.16 µM
[30] = second compound 3.16 µM, first compound 10 µM
[31] = second compound 10 µM, first compound 0.0316 µM
[32] = second compound 10 µM, first compound 0.1 µM
[33] = second compound 10 µM, first compound 0.316 µM
[34] = second compound 10 µM, first compound 1 µM
[35] = second compound 10 µM, first compound 3.16 µM
[36] = second compound 10 µM, first compound 10 µM
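Also: spheroids exposed to compounds for seven days before readout.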

Q: For `O=C(c1cc(Cc2n[nH]c(=O)c3ccccc23)ccc1F)N1CCN(C(=O)C2CC2)CC1` + Cc1cnc(CNC(=O)c2c(=O)c3ccc(N4CCCN(C)CC4)nc3n3c2sc2ccccc23)cn1, which IC50 (second compound 0.0316 µM) is on record?
A: The IC50 was over 10 µM.

Q: And the IC50 (second compound 0.1 µM)?
A: Its IC50 is over 10 µM.

Q: And the IC50 (second compound 0.316 µM)?
A: The IC50 was over 10 µM.

Q: What about the IC50 (second compound 1 µM) of the same molecule?
A: The IC50 was over 10 µM.

Q: And the IC50 (second compound 3.16 µM)?
A: Its IC50 is over 10 µM.

Q: What about the IC50 (second compound 10 µM) of the same molecule?
A: The IC50 was under 0.0316 µM.

Q: And the viability, T/C [1]?
A: Its viability, T/C is 94.2%.

Q: And the viability, T/C [2]?
A: The viability, T/C was 101%.

Q: What about the viability, T/C [3] of the same molecule?
A: Its viability, T/C is 93.5%.

Q: And the viability, T/C [4]?
A: Its viability, T/C is 77.7%.

Q: And the viability, T/C [5]?
A: The viability, T/C was 83.5%.

Q: What about the viability, T/C [6] of the same molecule?
A: The viability, T/C was 90.9%.

Q: And the viability, T/C [7]?
A: The viability, T/C was 102%.

Q: What about the viability, T/C [8] of the same molecule?
A: Its viability, T/C is 79%.

Q: And the viability, T/C [9]?
A: Its viability, T/C is 95.5%.

Q: And the viability, T/C [10]?
A: Its viability, T/C is 57%.

Q: And the viability, T/C [11]?
A: Its viability, T/C is 92.7%.

Q: And the viability, T/C [12]?
A: The viability, T/C was 87.3%.

Q: And the viability, T/C [13]?
A: The viability, T/C was 95.4%.

Q: And the viability, T/C [14]?
A: The viability, T/C was 63%.

Q: What about the viability, T/C [15] of the same molecule?
A: The viability, T/C was 91.9%.

Q: What about the viability, T/C [16] of the same molecule?
A: The viability, T/C was 74.7%.

Q: And the viability, T/C [17]?
A: The viability, T/C was 86.8%.

Q: What about the viability, T/C [18] of the same molecule?
A: The viability, T/C was 80.8%.

Q: And the viability, T/C [19]?
A: The viability, T/C was 60.3%.

Q: What about the viability, T/C [20] of the same molecule?
A: The viability, T/C was 69.6%.

Q: And the viability, T/C [21]?
A: Its viability, T/C is 53.8%.

Q: What about the viability, T/C [22] of the same molecule?
A: The viability, T/C was 57.4%.

Q: And the viability, T/C [23]?
A: Its viability, T/C is 71%.

Q: What about the viability, T/C [24] of the same molecule?
A: The viability, T/C was 66.2%.

Q: And the viability, T/C [25]?
A: The viability, T/C was 52.9%.

Q: What about the viability, T/C [26] of the same molecule?
A: Its viability, T/C is 53.3%.

Q: And the viability, T/C [27]?
A: Its viability, T/C is 53.5%.

Q: What about the viability, T/C [28] of the same molecule?
A: Its viability, T/C is 46.6%.

Q: And the viability, T/C [29]?
A: Its viability, T/C is 62.6%.

Q: What about the viability, T/C [30] of the same molecule?
A: Its viability, T/C is 51.1%.

Q: What about the viability, T/C [31] of the same molecule?
A: Its viability, T/C is 32.1%.

Q: And the viability, T/C [32]?
A: The viability, T/C was 53.5%.

Q: And the viability, T/C [33]?
A: Its viability, T/C is 49.9%.

Q: And the viability, T/C [34]?
A: Its viability, T/C is 48%.

Q: What about the viability, T/C [35] of the same molecule?
A: Its viability, T/C is 48.1%.

Q: What about the viability, T/C [36] of the same molecule?
A: The viability, T/C was 40.2%.

Q: Which results are given for `C=CC(=O)N1CCN(c2nc(=O)n(-c3c(C)ccnc3C(C)C)c3nc(-c4c(O)cccc4F)c(F)cc23)C(C)C1` (centres undefined) + Cc1cnc(CNC(=O)c2c(=O)c3ccc(N4CCCN(C)CC4)nc3n3c2sc2ccccc23)cn1?
A: IC50 (second compound 0.0316 µM): > 10 µM; IC50 (second compound 0.1 µM): > 10 µM; IC50 (second compound 0.316 µM): > 10 µM; IC50 (second compound 1 µM): > 10 µM; IC50 (second compound 3.16 µM): < 0.0316 µM; IC50 (second compound 10 µM): < 0.0316 µM; viability, T/C [1]: 103%; viability, T/C [2]: 77%; viability, T/C [3]: 95.1%; viability, T/C [4]: 68.5%; viability, T/C [5]: 75.7%; viability, T/C [6]: 71.6%; viability, T/C [7]: 89.2%; viability, T/C [8]: 81.7%; viability, T/C [9]: 82.3%; viability, T/C [10]: 67.7%; viability, T/C [11]: 102%; viability, T/C [12]: 90.9%; viability, T/C [13]: 85.7%; viability, T/C [14]: 78.7%; viability, T/C [15]: 70.5%; viability, T/C [16]: 73.9%; viability, T/C [17]: 92.6%; viability, T/C [18]: 83.8%; viability, T/C [19]: 67.6%; viability, T/C [20]: 59.4%; viability, T/C [21]: 60%; viability, T/C [22]: 65.1%; viability, T/C [23]: 77.6%; viability, T/C [24]: 79.7%; viability, T/C [25]: 37.7%; viability, T/C [26]: 50.9%; viability, T/C [27]: 54.2%; viability, T/C [28]: 54.4%; viability, T/C [29]: 64.1%; viability, T/C [30]: 57.5%; viability, T/C [31]: 34.2%; viability, T/C [32]: 41.6%; viability, T/C [33]: 44.5%; viability, T/C [34]: 44.7%; viability, T/C [35]: 58.6%; viability, T/C [36]: 49.7%
